Experimental data published in US20240158446A1, “CYCLIC COMPOUND HAVING SELECTIVE INHIBITORY ACTION ON KRAS OVER HRAS AND NRAS” (CHUGAI SEIYAKU KABUSHIKI KAISHA, priority 2021, published 2024).
Where a SMILES comes first, the peptide text is derived from it. Bridges are numbered along the chain shown (N, C = ends). [ ]: non-standard residue; d: D form. The star is where a group is joined. hPhe(3-Cl-4-CF3) = N[C@@H](CCc1ccc(C(F)(F)F)c(Cl)c1)C(=O)O; NPrPhe(4-CF3) = CCCN[C@@H](Cc1ccc(C(F)(F)F)cc1)C(=O)O; NMeGly(cPent) = CN[C@H](C(=O)O)C1CCCC1; Pro(4,4-F2) = O=C(O)[C@@H]1CC(F)(F)CN1; Hyp = O=C(O)[C@@H]1C[C@@H](O)CN1; NMeL = CN[C@@H](CC(C)C)C(=O)O; Morpholide = C1CN(*)CCO1; Ac5c = NC1(C(=O)O)CCCC1; Ac4c = NC1(C(=O)O)CCC1; NEtG = CCNCC(=O)O; Sar = CNCC(=O)O

Columns and labels:
[1] = molecular target: GDP-bound NRAS wild-type protein (Homo sapiens, UniProt P01111); assay: Binding to NRAS by surface plasmon resonance (SPR), Single Cycle Kinetics; conditions: SPR, GDP-bound NRAS wild-type protein vs GDP-bound KRAS wild-type protein
[2] = molecular target: GDP-bound HRAS wild-type protein (Homo sapiens, UniProt P01112); assay: Binding to HRAS by surface plasmon resonance (SPR), Single Cycle Kinetics; conditions: SPR, GDP-bound HRAS wild-type protein vs GDP-bound KRAS wild-type protein
[3] = molecular target: GDP-bound KRAS wild-type protein (Homo sapiens, UniProt P01116); assay: Binding to KRAS by surface plasmon resonance (SPR), Single Cycle Kinetics; conditions: SPR Single Cycle Kinetics, GDP-bound KRAS wild-type protein, 1:1 binding model; read-out: KRAS KD
Chain of GDP-bound KRAS wild-type protein (P01116 whole entry): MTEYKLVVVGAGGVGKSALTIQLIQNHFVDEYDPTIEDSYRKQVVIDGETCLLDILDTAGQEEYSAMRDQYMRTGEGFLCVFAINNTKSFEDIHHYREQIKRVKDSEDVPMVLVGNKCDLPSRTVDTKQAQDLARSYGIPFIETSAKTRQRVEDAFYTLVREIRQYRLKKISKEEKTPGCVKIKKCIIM

Chain of GDP-bound HRAS wild-type protein (P01112 whole entry): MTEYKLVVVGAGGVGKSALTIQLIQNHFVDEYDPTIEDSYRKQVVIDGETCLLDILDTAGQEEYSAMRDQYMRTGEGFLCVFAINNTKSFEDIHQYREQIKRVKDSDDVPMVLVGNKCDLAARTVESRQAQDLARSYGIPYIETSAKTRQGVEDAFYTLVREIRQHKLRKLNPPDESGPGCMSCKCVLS
Chain of GDP-bound NRAS wild-type protein (P01111 whole entry): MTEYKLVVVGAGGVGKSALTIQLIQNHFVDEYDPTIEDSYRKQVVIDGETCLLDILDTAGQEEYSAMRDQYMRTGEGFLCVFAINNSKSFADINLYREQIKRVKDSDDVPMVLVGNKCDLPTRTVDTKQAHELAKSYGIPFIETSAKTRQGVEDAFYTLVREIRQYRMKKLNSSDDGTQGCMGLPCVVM

| SMILES | NRAS/KRAS (ratio of KD value for NRAS to KD value for KRAS) [1] | HRAS/KRAS (ratio of KD value for HRAS to KD value for KRAS) [2] | Kd [3] |
| --- | --- | --- | --- |
| CCCN1C(=O)CN(C)C(=O)CN(C)C(=O)[C@H]([C@@H](C)CC)NC(=O)[C@H](CC(C)C)N(C)C(=O)C[C@@H](C(=O)N2CCOCC2)NC(=O)[C@H](C2CCCC2)N(C)C(=O)C2(CCCC2)NC(=O)[C@@H]2CC(F)(F)CN2C(=O)[C@H](CCc2ccc(C(F)(F)F)c(Cl)c2)NC(=O)CN(C)C(=O)[C@@H]1Cc1ccc(C(F)(F)F)cc1 [PP0321] ([NMeL]I[Sar][Sar][NPrPhe(4-CF3)][Sar][hPhe(3-Cl-4-CF3)][Pro(4,4-F2)][Ac5c][NMeGly(cPent)]D-Morpholide; lactam N-11) | B (a compound having 3 or more and less than 10 is denoted as B) | B (a compound having 3 or more and less than 10 is denoted as B) | 1 nM |
| CCCN1C(=O)CN(C)C(=O)CN(C)C(=O)[C@H]([C@@H](C)CC)NC(=O)[C@H](CC(C)C)N(C)C(=O)C[C@@H](C(=O)N2CCOCC2)NC(=O)[C@H](C2CCCC2)N(C)C(=O)C2(CCC2)NC(=O)[C@@H]2CC(F)(F)CN2C(=O)[C@H](CCc2ccc(C(F)(F)F)c(Cl)c2)NC(=O)CN(C)C(=O)[C@@H]1Cc1ccc(C(F)(F)F)cc1 [PP0322] ([NMeL]I[Sar][Sar][NPrPhe(4-CF3)][Sar][hPhe(3-Cl-4-CF3)][Pro(4,4-F2)][Ac4c][NMeGly(cPent)]D-Morpholide; lactam N-11) | B (a compound having 3 or more and less than 10 is denoted as B) | C (A compound having a KD ratio of 0.1 or more and less than 3 is denoted as C) | 0.84 nM |
| CCCN1C(=O)CN(C)C(=O)CN(C)C(=O)[C@H]([C@@H](C)CC)NC(=O)[C@H](CC(C)C)N(C)C(=O)C[C@@H](C(=O)N2CCOCC2)NC(=O)[C@H](C2CCCC2)N(C)C(=O)C2(CCCC2)NC(=O)[C@@H]2C[C@@H](OCC)CN2C(=O)[C@H](CCc2ccc(C(F)(F)F)c(Cl)c2)NC(=O)CN(C)C(=O)[C@@H]1Cc1ccc(C(F)(F)F)cc1 [PP0323] ([NMeL]I[Sar][Sar][NPrPhe(4-CF3)][Sar][hPhe(3-Cl-4-CF3)][Hyp](Et)[Ac5c][NMeGly(cPent)]D-Morpholide; lactam N-11) | B (a compound having 3 or more and less than 10 is denoted as B) | B (a compound having 3 or more and less than 10 is denoted as B) | 0.25 nM |
| CCCN1C(=O)CN(C)C(=O)CN(C)C(=O)[C@H]([C@@H](C)CC)NC(=O)[C@H](CC(C)C)N(C)C(=O)C[C@@H](C(=O)N2CCOCC2)NC(=O)[C@H](C2CCCC2)N(C)C(=O)C2(CCC2)NC(=O)[C@@H]2C[C@@H](OCC)CN2C(=O)[C@H](CCc2ccc(C(F)(F)F)c(Cl)c2)NC(=O)CN(C)C(=O)[C@@H]1Cc1ccc(C(F)(F)F)cc1 [PP0324] ([NMeL]I[Sar][Sar][NPrPhe(4-CF3)][Sar][hPhe(3-Cl-4-CF3)][Hyp](Et)[Ac4c][NMeGly(cPent)]D-Morpholide; lactam N-11) | B (a compound having 3 or more and less than 10 is denoted as B) | B (a compound having 3 or more and less than 10 is denoted as B) | 0.41 nM |
| CCCN1C(=O)CN(C)C(=O)CNC(=O)[C@H]([C@@H](C)CC)NC(=O)[C@H](CC(C)C)N(C)C(=O)C[C@@H](C(=O)N2CCOCC2)NC(=O)[C@H](C2CCCC2)N(C)C(=O)C2(CCCC2)NC(=O)[C@@H]2CCCN2C(=O)[C@H](CCc2ccc(C(F)(F)F)c(Cl)c2)NC(=O)CN(C)C(=O)[C@@H]1Cc1ccc(C(F)(F)F)cc1 [PP0325] ([NMeL]IG[Sar][NPrPhe(4-CF3)][Sar][hPhe(3-Cl-4-CF3)]P[Ac5c][NMeGly(cPent)]D-Morpholide; lactam N-11) | B (a compound having 3 or more and less than 10 is denoted as B) | B (a compound having 3 or more and less than 10 is denoted as B) | 1.1 nM |
| CCCN1C(=O)CN(C)C(=O)CNC(=O)[C@H]([C@@H](C)CC)NC(=O)[C@H](CC(C)C)N(C)C(=O)C[C@@H](C(=O)N2CCOCC2)NC(=O)[C@H](C2CCCC2)N(C)C(=O)C2(CCC2)NC(=O)[C@@H]2CCCN2C(=O)[C@H](CCc2ccc(C(F)(F)F)c(Cl)c2)NC(=O)CN(C)C(=O)[C@@H]1Cc1ccc(C(F)(F)F)cc1 [PP0326] ([NMeL]IG[Sar][NPrPhe(4-CF3)][Sar][hPhe(3-Cl-4-CF3)]P[Ac4c][NMeGly(cPent)]D-Morpholide; lactam N-11) | B (a compound having 3 or more and less than 10 is denoted as B) | B (a compound having 3 or more and less than 10 is denoted as B) | 1.5 nM |
| CCCN1C(=O)CN(C)C(=O)CNC(=O)[C@H]([C@@H](C)CC)NC(=O)[C@H](CC(C)C)N(C)C(=O)C[C@@H](C(=O)N2CCOCC2)NC(=O)[C@H](C2CCCC2)N(C)C(=O)C2(CCCC2)NC(=O)[C@@H]2CC(F)(F)CN2C(=O)[C@H](CCc2ccc(C(F)(F)F)c(Cl)c2)NC(=O)CN(C)C(=O)[C@@H]1Cc1ccc(C(F)(F)F)cc1 [PP0327] ([NMeL]IG[Sar][NPrPhe(4-CF3)][Sar][hPhe(3-Cl-4-CF3)][Pro(4,4-F2)][Ac5c][NMeGly(cPent)]D-Morpholide; lactam N-11) | B (a compound having 3 or more and less than 10 is denoted as B) | B (a compound having 3 or more and less than 10 is denoted as B) | 1.9 nM |
| CCCN1C(=O)CN(C)C(=O)CNC(=O)[C@H]([C@@H](C)CC)NC(=O)[C@H](CC(C)C)N(C)C(=O)C[C@@H](C(=O)N2CCOCC2)NC(=O)[C@H](C2CCCC2)N(C)C(=O)C2(CCC2)NC(=O)[C@@H]2CC(F)(F)CN2C(=O)[C@H](CCc2ccc(C(F)(F)F)c(Cl)c2)NC(=O)CN(C)C(=O)[C@@H]1Cc1ccc(C(F)(F)F)cc1 [PP0328] ([NMeL]IG[Sar][NPrPhe(4-CF3)][Sar][hPhe(3-Cl-4-CF3)][Pro(4,4-F2)][Ac4c][NMeGly(cPent)]D-Morpholide; lactam N-11) | B (a compound having 3 or more and less than 10 is denoted as B) | B (a compound having 3 or more and less than 10 is denoted as B) | 1.6 nM |
| CCCN1C(=O)CN(C)C(=O)CNC(=O)[C@H]([C@@H](C)CC)NC(=O)[C@H](CC(C)C)N(C)C(=O)C[C@@H](C(=O)N2CCOCC2)NC(=O)[C@H](C2CCCC2)N(C)C(=O)C2(CCCC2)NC(=O)[C@@H]2C[C@@H](OCC)CN2C(=O)[C@H](CCc2ccc(C(F)(F)F)c(Cl)c2)NC(=O)CN(C)C(=O)[C@@H]1Cc1ccc(C(F)(F)F)cc1 [PP0329] ([NMeL]IG[Sar][NPrPhe(4-CF3)][Sar][hPhe(3-Cl-4-CF3)][Hyp](Et)[Ac5c][NMeGly(cPent)]D-Morpholide; lactam N-11) | B (a compound having 3 or more and less than 10 is denoted as B) | C (A compound having a KD ratio of 0.1 or more and less than 3 is denoted as C) | 0.74 nM |
| CCCN1C(=O)CN(C)C(=O)CNC(=O)[C@H]([C@@H](C)CC)NC(=O)[C@H](CC(C)C)N(C)C(=O)C[C@@H](C(=O)N2CCOCC2)NC(=O)[C@H](C2CCCC2)N(C)C(=O)C2(CCC2)NC(=O)[C@@H]2C[C@@H](OCC)CN2C(=O)[C@H](CCc2ccc(C(F)(F)F)c(Cl)c2)NC(=O)CN(C)C(=O)[C@@H]1Cc1ccc(C(F)(F)F)cc1 [PP0330] ([NMeL]IG[Sar][NPrPhe(4-CF3)][Sar][hPhe(3-Cl-4-CF3)][Hyp](Et)[Ac4c][NMeGly(cPent)]D-Morpholide; lactam N-11) | B (a compound having 3 or more and less than 10 is denoted as B) | C (A compound having a KD ratio of 0.1 or more and less than 3 is denoted as C) | 0.95 nM |
| CCCN1C(=O)CN(C)C(=O)CN(CC)C(=O)[C@H]([C@@H](C)CC)NC(=O)[C@H](CC(C)C)N(C)C(=O)C[C@@H](C(=O)N2CCOCC2)NC(=O)[C@H](C2CCCC2)N(C)C(=O)C2(CCCC2)NC(=O)[C@@H]2CCCN2C(=O)[C@H](CCc2ccc(C(F)(F)F)c(Cl)c2)NC(=O)CN(C)C(=O)[C@@H]1Cc1ccc(C(F)(F)F)cc1 [PP0331] ([NMeL]I[NEtG][Sar][NPrPhe(4-CF3)][Sar][hPhe(3-Cl-4-CF3)]P[Ac5c][NMeGly(cPent)]D-Morpholide; lactam N-11) | B (a compound having 3 or more and less than 10 is denoted as B) | B (a compound having 3 or more and less than 10 is denoted as B) | 2.8 nM |
| CCCN1C(=O)CN(C)C(=O)CN(CC)C(=O)[C@H]([C@@H](C)CC)NC(=O)[C@H](CC(C)C)N(C)C(=O)C[C@@H](C(=O)N2CCOCC2)NC(=O)[C@H](C2CCCC2)N(C)C(=O)C2(CCC2)NC(=O)[C@@H]2CCCN2C(=O)[C@H](CCc2ccc(C(F)(F)F)c(Cl)c2)NC(=O)CN(C)C(=O)[C@@H]1Cc1ccc(C(F)(F)F)cc1 [PP0332] ([NMeL]I[NEtG][Sar][NPrPhe(4-CF3)][Sar][hPhe(3-Cl-4-CF3)]P[Ac4c][NMeGly(cPent)]D-Morpholide; lactam N-11) | B (a compound having 3 or more and less than 10 is denoted as B) | B (a compound having 3 or more and less than 10 is denoted as B) | 3.2 nM |
